Test system: MCF7 multi-cell spheroids with HUVEC/MSC, viability
Test: Anticancer human tumor MCF7 cell line growth inhibition [IpAb];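 note: spheroids exposed to agents for seven days before readout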
Conditions: for IC50: curve of first compound; for viability, T/C: stronger effect = lower value
In short: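 Spheroids of 60% malignant cells, 25% HUVEC and 15% MSC were exposed to targeted agents combined with ipatasertib or abemaciclib. Doses started at or near clinical Cmax (10 microM when unknown) and fell in half-log steps.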

[1] = second compound 0.01 µM, first compound 0.0316 µM
[2] = second compound 0.01 µM, first compound 0.1 µM
[3] = second compound 0.0316 µM, first compound 0.0316 µM
[4] = second compound 0.0316 µM, first compound 0.1 µM
[5] = second compound 0.1 µM, first compound 0.0316 µM
[6] = second compound 0.1 µM, first compound 0.1 µM
[7] = second compound 0.316 µM, first compound 0.0316 µM
[8] = second compound 0.316 µM, first compound 0.1 µM
[9] = second compound 1 µM, first compound 0.0316 µM
[10] = second compound 1 µM, first compound 0.1 µM

SMILES: Cn1ncc(Cl)c1-c1cc(C(=O)NC(CN)Cc2cccc(F)c2)sc1Cl (stereo not given) + CCN1CCN(Cc2ccc(Nc3ncc(F)c(-c4cc(F)c5nc(C)n(C(C)C)c5c4)n3)nc2)CC1
- IC50 (second compound 0.01 µM): 847 nM
- IC50 (second compound 0.0316 µM): 758 nM
- IC50 (second compound 0.1 µM): 838 nM
- IC50 (second compound 0.316 µM): 1320 nM
- IC50 (second compound 1 µM): 715 nM
- viability, T/C [1]: 93%
- viability, T/C [2]: 85.9%
- viability, T/C (second compound 0.01 µM, first compound 0.316 µM): 65.2%
- viability, T/C (second compound 0.01 µM, first compound 1 µM): 53.2%
- viability, T/C (second compound 0.01 µM, first compound 3.16 µM): 15%
- viability, T/C (second compound 0.01 µM, first compound 10 µM): 0.18%
- viability, T/C [3]: 91.9%
- viability, T/C [4]: 89.6%
- viability, T/C (second compound 0.0316 µM, first compound 0.316 µM): 70.7%
- viability, T/C (second compound 0.0316 µM, first compound 1 µM): 46.8%
- viability, T/C (second compound 0.0316 µM, first compound 3.16 µM): 4.25%
- viability, T/C (second compound 0.0316 µM, first compound 10 µM): 0.13%
- viability, T/C [5]: 94.7%
- viability, T/C [6]: 86.3%
- viability, T/C (second compound 0.1 µM, first compound 0.316 µM): 69%
- viability, T/C (second compound 0.1 µM, first compound 1 µM): 53.1%
- viability, T/C (second compound 0.1 µM, first compound 3.16 µM): 5.55%
- viability, T/C (second compound 0.1 µM, first compound 10 µM): 0.15%
- viability, T/C [7]: 95.7%
- viability, T/C [8]: 88.4%
- viability, T/C (second compound 0.316 µM, first compound 0.316 µM): 78.8%
- viability, T/C (second compound 0.316 µM, first compound 1 µM): 64.5%
- viability, T/C (second compound 0.316 µM, first compound 3.16 µM): 7.44%
- viability, T/C (second compound 0.316 µM, first compound 10 µM): 0.17%
- viability, T/C [9]: 98.7%
- viability, T/C [10]: 81.1%
- viability, T/C (second compound 1 µM, first compound 0.316 µM): 62.9%
- viability, T/C (second compound 1 µM, first compound 1 µM): 56.2%
- viability, T/C (second compound 1 µM, first compound 3.16 µM): 0.7%
- viability, T/C (second compound 1 µM, first compound 10 µM): 0.23%

SMILES: Cn1ncnc1[C@H]1c2n[nH]c(=O)c3cc(F)cc(c23)N[C@@H]1c1ccc(F)cc1 + CCN1CCN(Cc2ccc(Nc3ncc(F)c(-c4cc(F)c5nc(C)n(C(C)C)c5c4)n3)nc2)CC1
- IC50 (second compound 0.01 µM): > 100 nM
- IC50 (second compound 0.0316 µM): > 100 nM
- IC50 (second compound 0.1 µM): > 100 nM
- IC50 (second compound 0.316 µM): > 100 nM
- IC50 (second compound 1 µM): > 100 nM
- viability, T/C (second compound 0.01 µM, first compound 0.000316 µM): 95.3%
- viability, T/C (second compound 0.01 µM, first compound 0.001 µM): 102%
- viability, T/C (second compound 0.01 µM, first compound 0.00316 µM): 115%
- viability, T/C (second compound 0.01 µM, first compound 0.01 µM): 98.6%
- viability, T/C [1]: 106%
- viability, T/C [2]: 92.5%
- viability, T/C (second compound 0.0316 µM, first compound 0.000316 µM): 98.6%
- viability, T/C (second compound 0.0316 µM, first compound 0.001 µM): 107%
- viability, T/C (second compound 0.0316 µM, first compound 0.00316 µM): 83.8%
- viability, T/C (second compound 0.0316 µM, first compound 0.01 µM): 89.4%
- viability, T/C [3]: 100%
- viability, T/C [4]: 88.1%
- viability, T/C (second compound 0.1 µM, first compound 0.000316 µM): 114%
- viability, T/C (second compound 0.1 µM, first compound 0.001 µM): 103%
- viability, T/C (second compound 0.1 µM, first compound 0.00316 µM): 107%
- viability, T/C (second compound 0.1 µM, first compound 0.01 µM): 87.5%
- viability, T/C [5]: 85.1%
- viability, T/C [6]: 85.3%
- viability, T/C (second compound 0.316 µM, first compound 0.000316 µM): 108%
- viability, T/C (second compound 0.316 µM, first compound 0.001 µM): 106%
- viability, T/C (second compound 0.316 µM, first compound 0.00316 µM): 93.4%
- viability, T/C (second compound 0.316 µM, first compound 0.01 µM): 97.4%
- viability, T/C [7]: 90.2%
- viability, T/C [8]: 88.7%
- viability, T/C (second compound 1 µM, first compound 0.000316 µM): 100%
- viability, T/C (second compound 1 µM, first compound 0.001 µM): 105%
- viability, T/C (second compound 1 µM, first compound 0.00316 µM): 84.4%
- viability, T/C (second compound 1 µM, first compound 0.01 µM): 100%
- viability, T/C [9]: 85.3%
- viability, T/C [10]: 85.7%

Reference: PubChem BioAssay AID2060329 (Molecular Pharmacology Branch, DTP, NCI, 2025)
